Tests used:
Assay type in all cases: physicochemical
[1] = LNP encapsulation efficiency by Ribogreen assay (Example 16 LNPs); conditions: Example 16 LNPs: 47.5% Ionizable Lipid: 40% cholesterol: 2.5% PEG-2000 DMG: 10% DPSC, N/P 4-8
Procedure: (§1) LNPs were prepared with 47.5% Ionizable Lipid (e.g., a compound provided herein): 40% cholesterol: 2.5% PEG-2000 DMG: 10% DPSC and an N/P ratio range of 4-8. LNPs were formed by microfluidic mixing of the lipid and NA solutions using a Precision Nanosystems NanoAssemblr Spark or Benchtop series Instruments, according to the manufacturer's protocol. A ratio of aqueous to organic solvent of approximately 2:1 or 3:1 was maintained during mixing using differential flow rates. After mixing, LNPs were collected, diluted in phosphate buffer saline (PBS) or Tris-buffered saline (TBS) (approximately 1:1 v/v). Further buffer exchange was conducted using dialysis in PBS or TBS at 4° C. for 4 to 24 hours against a 20 kDa filter. After this initial dialysis, each individual LNP preparation was characterized via dynamic light scattering (DLS) to measure the size (e.g., diameter) and polydispersity. LNPs falling within specific diameter and polydispersity ranges were pooled, and further dialyzed against PBS or TBS at 4° C. for 1 to 4 hours against a 100 kDa dialysis cassette. After the second dialysis, LNPs were sterile filtered using 0.22 μm filter and stored at 4° C. for further use.
RNA concentration and encapsulation efficiency were determined by Ribogreen assay (BioTek Synergy LX plate reader).

[2] = LNP hydrodynamic diameter and PDI by DLS (Example 16 LNPs, Stunner); conditions: Example 16 LNPs: 47.5% Ionizable Lipid: 40% cholesterol: 2.5% PEG-2000 DMG: 10% DPSC, N/P 4-8
Procedure: as §1
LNP hydrodynamic diameter and polydispersity index (PDI) were measured using high throughput dynamic light scattering (DLS) (Stunner, Unchained Labs). LNPs were diluted 1×TBS or PBS to an appropriate concentration and analyzed.

[3] = LNP encapsulation efficiency, unlysed vs lysed LNPs, Qubit kit (Example 1 LNPs); conditions: LNPs prepared according to Example 1; total lipid to NA mass ratio 11.7
Procedure: Concentration of NA was determined by Qubit microRNA kit (for siRNA) or HS RNA kit (for mRNA) per manufacturer's instructions. Encapsulation efficiency was determined by measuring nucleic acid concentration in unlysed and lysed LNPs. Encapsulation efficiency was determined by measuring unlysed and lysed LNPs.

[4] = LNP hydrodynamic diameter and polydispersity by DLS (Example 1 LNPs); conditions: LNPs prepared according to Example 1, total lipid to NA mass ratio 11.7
Procedure: LNPs were prepared with a total lipid to NA mass ratio of 11.7. LNPs were formed by microfluidic mixing of the lipid and NA solutions using a Precision Nanosystems NanoAssemblr Spark or Benchtop series Instruments, according to the manufacturers protocol. A ratio of aqueous to organic solvent of approximately 2:1 or 3:1 was maintained during mixing using differential flow rates. After mixing, LNPs were collected, diluted in PBS (approximately 1:1 v/v). Further buffer exchange was conducted using dialysis in PBS at 4° C. for 4 to 24 hours against a 20 kDa filter. After this initial dialysis, each individual LNP preparation was characterized via dynamic light scattering (DLS) to measure the size (e.g., diameter) and polydispersity. In addition, pKa of a subpopulation of LNPs was measured via a 2-(p-toluidino)-6-napthalene sulfonic acid (TNS) assay. LNPs falling within specific diameter and polydispersity ranges are pooled, and further dialyzed against phosphate buffer saline (PBS) at 4° C. for 1 to 4 hours against a 100 kDa dialysis cassette. After the second dialysis, LNPs were sterile filtered using […] filter and stored at 4° C. for further use.
DLS-LNP hydrodynamic diameter and polydispersity index (PDI) were measured using high throughput dynamic light scattering (DLS) (DynaPro plate reader II, Wyatt). LNPs were diluted 1×PBS to an appropriate concentration and analyzed.
Lipid nanoparticle components were dissolved in 100% ethanol at specified lipid component molar ratios. Nucleic acid (NA) cargo was dissolved in 10 mM citrate, 100 mM NaCl, pH 4.0, resulting in a concentration of NA cargo of approximately 0.22 mg/mL. In some embodiments, NA cargos included both a functional NA and a reporter DNA barcode mixed at mass ratios of 1:10 to 10:1 functional NA to barcode. LNPs were formulated with a total lipid to NA mass ratio of 11.7. LNPs were formed by microfluidic mixing of the lipid and NA solutions using a Precision Nanosystems NanoAssemblr Spark or Benchtop series Instruments, according to the manufacturer's protocol. A 2:1 or 3:1 ratio of aqueous to organic solvent was maintained during mixing using differential flow rates. After mixing, LNPs were collected, diluted in PBS (approximately 1:1 v/v), and further buffer exchange was conducted using dialysis in PBS at 4° C. for 8 to 24 hours against a 20 kDa filter. After this initial dialysis, each individual LNP formulation was characterized via DLS to measure the size and polydispersity, and the pKa of a subpopulation of LNPs is measured via TNS assay. After dialysis, LNPs were sterile filtered using 0.22 micron sterile filter and stored at 4° C. for further use.
LNP hydrodynamic diameter and polydispersity index (PDI) were measured using high throughput dynamic light scattering (DLS) (DynaPro plate reader II, Wyatt). LNPs were diluted 1×PBS to an appropriate concentration and analyzed.

Row | Compound | Mean Encapsulation Efficiency [1] [%] | Mean Diameter [2] [nm] | Mean PDI [2] | Mean Encapsulation Efficiency [3] [%] | Mean Diameter [4] [nm] | Mean PDI [4] [%]
1 | CC/C=C\CCCCOC(CCC(=O)OCCCCCCN(CCO)CCCN(CCCCCCOC(=O)CCC(OCCCC/C=C\CC)OCCCC/C=C\CC)CCCCCCOC(=O)CCC(OCCCC/C=C\CC)OCCCC/C=C\CC)OCCCC/C=C\CC [Example 7-1] | 80.8 | 90.2 | 0.12 | – | – | –
2 | CC/C=C\CCCCOC(CCC(=O)OCCCCCCN(CCCCCCOC(=O)CCC(OCCCC/C=C\CC)OCCCC/C=C\CC)CCCN(CCO)CCCCCCCC(=O)OCCCCCCCCC)OCCCC/C=C\CC [Example 7-3, ((3-((2-hydroxyethyl)(8-(nonyloxy)-8-oxooctyl)amino)propyl)azanediyl)bis(hexane-6,1-diyl) bis(4,4-bis(((Z)-oct-5-en-1-yl)oxy)butanoate)] | 85.1 | 69.1 | 0.13 | – | – | –
3 | CC/C=C\CCCCOC(CCC(=O)OCCCCCCN(CCO)CCCN(CCCCCCCC(=O)OCCCCCCCCC)CCCCCCCC(=O)OCCCCCCCCC)OCCCC/C=C\CC [Example 7-6] | 46.0 | 85.7 | 0.10 | – | – | –
4 | CC/C=C\CCCCOC(CCC(=O)OCCCCCCN(CCO)CCCN(CCCCCCOC(=O)C(CCCC)CCCCCC)CCCCCCOC(=O)C(CCCC)CCCCCC)OCCCC/C=C\CC (stereo not drawn) [Example 7-7] | 57.4 | 83.4 | 0.08 | – | – | –
5 | CC/C=C\CCCCOC(CCC(=O)OCCCCCCCN(CCO)CCCN(CCCCCCOC(=O)C(CCCC)CCCCCC)CCCCCCOC(=O)C(CCCC)CCCCCC)OCCCC/C=C\CC (stereo not drawn) [Example 7-9] | 69.4 | 89.2 | 0.11 | – | – | –
6 | CC/C=C\CCCCOC(CCC(=O)OCCCCCCN(CCCO)CCN(CCCCCCOC(=O)CCC(OCCCC/C=C\CC)OCCCC/C=C\CC)CCCCCCOC(=O)CCC(OCCCC/C=C\CC)OCCCC/C=C\CC)OCCCC/C=C\CC [Example 7-16] | 81.8 | 91.3 | 0.11 | – | – | –
7 | CC/C=C\CCCCOC(CCC(=O)OCCCCCCN(CCCO)CCN(CCCCCCCCCOC(=O)C(CCCC)CCCCCC)CCCCCCCCCOC(=O)C(CCCC)CCCCCC)OCCCC/C=C\CC (stereo not drawn) [Example 7-21] | 60.9 | 87.1 | 0.12 | – | – | –
8 | CC/C=C\CCCCOC(CCC(=O)OCCCCCCCN(CCCCCCCOC(=O)CCC(OCCCC/C=C\CC)OCCCC/C=C\CC)CCCN(CCO)CCCCCCCCCOC(=O)C(CCCC)CCCCCC)OCCCC/C=C\CC (stereo not drawn) [Example 7-24, ((3-((9-((2-butyloctanoyl)oxy)nonyl)(2-hydroxyethyl)amino)propyl)azanediyl)bis(heptane-7,1-diyl) bis(4,4-bis(((Z)-oct-5-en-1-yl)oxy)butanoate)] | 72.4 | 92.7 | 0.12 | – | – | –
9 | CC/C=C\CCCCOC(CCC(=O)OCCCCCCCN(CCO)CCCN(CCCCCCCCCOC(=O)C(CCCC)CCCCCC)CCCCCCCCCOC(=O)C(CCCC)CCCCCC)OCCCC/C=C\CC (stereo not drawn) [Example 7-25] | 62.8 | 92.4 | 0.13 | – | – | –
10 | CC/C=C\CCCCOC(CCC(=O)OCCCCCCCN(CCCO)CCN(CCCCCCCCCOC(=O)C(CCCC)CCCCCC)CCCCCCCCCOC(=O)C(CCCC)CCCCCC)OCCCC/C=C\CC (stereo not drawn) [Example 7-27] | 63.3 | 81.7 | 0.11 | – | – | –
11 | CC/C=C\CCCCOC(CCC(=O)OCCCCCCCN(CCCO)CCCN(CCCCCCCOC(=O)CCC(OCCCC/C=C\CC)OCCCC/C=C\CC)CCCCCCCOC(=O)CCC(OCCCC/C=C\CC)OCCCC/C=C\CC)OCCCC/C=C\CC [Example 7-29] | 83.2 | 95.4 | 0.13 | – | – | –

Results, then the molecule that gave them:

Row | Mean Encapsulation Efficiency [1] [%] | Mean Diameter [2] [nm] | Mean PDI [2] | Mean Encapsulation Efficiency [3] [%] | Mean Diameter [4] [nm] | Mean PDI [4] [%] | Compound
12 | 49.0 | 81.3 | 0.12 | – | – | – | CC/C=C\CCCCOC(CCC(=O)OCCCCCCN(CCO)CCCN(CCCCCC(=O)OCCCCCCCCC)CCCCCC(=O)OCCCCCCCCC)OCCCC/C=C\CC [Example 7-5, dinonyl 6,6′-((3-((6-((4,4-bis(((Z)-oct-5-en-1-yl)oxy)butanoyl)oxy)hexyl)(2-hydroxyethyl)amino)propyl)azanediyl)dihexanoate]
13 | – | – | – | 96.4 | 79.8 | 9.4 | CC/C=C\CCCCOC(CCC(=O)OCCCCCCCN(CCO)CCN(CCCCCCCOC(=O)CCC(OCCCC/C=C\CC)OCCCC/C=C\CC)CCCCCCCOC(=O)CCC(OCCCC/C=C\CC)OCCCC/C=C\CC)OCCCC/C=C\CC [Example 7-11]
14 | – | – | – | 97.2 | 85.9 | 10.8 | CC/C=C\CCCCOC(CCC(=O)OCCCCCCCN(CCCO)CCN(CCCCCCCOC(=O)CCC(OCCCC/C=C\CC)OCCCC/C=C\CC)CCCCCCCOC(=O)CCC(OCCCC/C=C\CC)OCCCC/C=C\CC)OCCCC/C=C\CC [Example 7-17]
15 | 71.4 | 97.0 | 0.17 | – | – | – | CC/C=C\CCCCOC(CCC(=O)OCCCCCCN(CCCO)CCN(CCCCCCOC(=O)C(CCCC)CCCCCC)CCCCCCOC(=O)C(CCCC)CCCCCC)OCCCC/C=C\CC (stereo not drawn) [Example 7-20]
16 | 69.2 | 82.5 | 0.12 | – | – | – | CC/C=C\CCCCOC(CCC(=O)OCCCCCCCN(CCCCCCCOC(=O)CCC(OCCCC/C=C\CC)OCCCC/C=C\CC)CCN(CCO)CCCCCCCCCOC(=O)C(CCCC)CCCCCC)OCCCC/C=C\CC (stereo not drawn) [Example 7-26, ((2-((9-((2-butyloctanoyl)oxy)nonyl)(2-hydroxyethyl)amino)ethyl)azanediyl)bis(heptane-7,1-diyl) bis(4,4-bis(((Z)-oct-5-en-1-yl)oxy)butanoate)]
17 | 49.6 | 98.8 | 0.11 | – | – | – | CC/C=C\CCCCOC(CCC(=O)OCCCCCCCN(CCCCCCCOC(=O)CCC(OCCCC/C=C\CC)OCCCC/C=C\CC)CCCN(CCCO)CCCCCCCC(=O)OCCCCCCCCC)OCCCC/C=C\CC [Example 7-28, ((3-((3-hydroxypropyl)(8-(nonyloxy)-8-oxooctyl)amino)propyl)azanediyl)bis(heptane-7,1-diyl) bis(4,4-bis(((Z)-oct-5-en-1-yl)oxy)butanoate)]
